Test results reported in US11174253B2, “Compound and pharmaceutical composition containing the same” (ALPHALA CO., LTD., priority 2017, dated 2021).

Key:
Type in all cases: cell-based
[1] = system: NCI-H460 human lung cancer cell line; assay: MTS cell viability assay (NCI-60 methodology), GI50/LC50, NCI-H460; conditions: 48 h, NCI-H460 cells, 2 days incubation with compound
Summary of the method: (§1)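 Cells were plated 24 h before treatment, and a time-zero plate was read by MTS. Five 2-fold dilutions plus DMSO were then added for 48 h, and viability was measured by MTS. GI50 is from [(Ti−Tz)/(C−Tz)]×100=50 and LC50 from [(Ti−Tz)/Tz]×100=−50.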

[2] = system: hepatocellular carcinoma cell line Hep3B; assay: Growth inhibition of Hep3B cells, 48 hr treatment, Hoechst 33342 nucleus count (GE InCell 2200); conditions: Homo sapiens
Summary of the method: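 Compound exposure lasted 48 hr at 37° C, 5% CO2. Surviving nuclei were counted after Hoechst 33342 staining, and survival was expressed as the treated/non-treated cell number ratio, including the ratio at 10 μM compound.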

[3] = system: SW480 colon adenocarcinoma cell line; assay: MTS cell viability assay (NCI-60 methodology), GI50/LC50, SW480; conditions: Homo sapiens, 48 h, SW480 cells, 2 days incubation with compound
Summary of the method: as §1

[4] = system: Hep3B hepatocellular carcinoma cell line; assay: MTS cell viability assay (NCI-60 methodology), GI50/LC50, Hep3B; conditions: Homo sapiens, 48 h, Hep3B cells, 2 days incubation with compound
Summary of the method: as §1

[5] = Table 5, ratio of number of tumor cells treated with 10 μM compound to non-treated cells
[6] = Table 6, ratio of number of tumor cells treated with 10 μM compound to non-treated cells

SMILES | GI50 [1] [nM] | LC50 (concentration giving 50% net cell loss versus time zero, NCI-60 definition) [1] [nM] | viability at 10 µM [2, 5] [%] | GI50 [3] [nM] | LC50 (NCI-60 lethal concentration, 50% net cell loss vs time zero) [3] [nM] | GI50 [4] [nM] | LC50 [4] [nM] | viability at 10 µM [2, 6] [%]
CCCCCOc1ccc(-c2nc(NC(=O)c3ccc([N+](=O)[O-])s3)sc2Oc2ccccc2)cc1 [Compound 5-76, 5-nitro-N-(4-(4-(pentyloxy)phenyl)-5-phenoxythiazol-2-yl)thiophene-2-carboxamide] | 740 | 1520 | 38 | 1270 | 5820 | 560 | 1720 | 
CCCCc1ccc(-c2nc(NC(=O)c3ccc([N+](=O)[O-])s3)sc2Oc2ccccc2F)cc1 [Compound 5-80, N-(4-(4-butylphenyl)-5-(2-fluorophenoxy)thiazol-2-yl)-5-nitrothiophene-2-carboxamide] | 840 | 1750 | 26 | 1460 | 4170 | 680 | 1280 | 
O=C(Nc1nc(-c2ccc(C(F)(F)F)cc2)c(Oc2ccccc2)s1)c1ccc([N+](=O)[O-])s1 [Compound 5-81, 5-nitro-N-(5-phenoxy-4-(4-(trifluoromethyl)phenyl)thiazol-2-yl)thiophene-2-carboxamide] | 810 | 2110 | 30 | 2470 | 8600 | 980 | 4230 | 
O=C(Nc1nc(-c2ccc(OC(F)(F)F)cc2)c(Oc2ccccc2F)s1)c1ccc([N+](=O)[O-])s1 [Compound 5-85, N-(5-(2-fluorophenoxy)-4-(4-(trifluoromethoxy)phenyl)thiazol-2-yl)-5-nitrothiophene-2-carboxamide] | 750 | 1580 | 34 | 1660 | 5730 | 870 | 2540 | 
Cc1ccc(-c2nc(NC(=O)c3ccc([N+](=O)[O-])s3)sc2-c2cc(C(F)(F)F)cc(C(F)(F)F)c2)cc1 [Compound 6-5, N-(5-(3,5-bis(trifluoromethyl)phenyl)-4-(p-tolyl)thiazol-2-yl)-5-nitrothiophene-2-carboxamide] | 1120 | 1630 |  | 1200 | 1410 | 950 | 1080 | 46
CCCOc1ccc(-c2nc(NC(=O)c3ccc([N+](=O)[O-])s3)sc2-c2ccc(F)cc2)cc1 [Compound 6-16, N-(5-(4-fluorophenyl)-4-(4-propoxyphenyl)thiazol-2-yl)-5-nitrothiophene-2-carboxamide] | 860 | 1750 |  | 1890 | 2790 | 1240 | 1830 | 59
CCCCOc1ccc(-c2nc(NC(=O)c3ccc([N+](=O)[O-])s3)sc2-c2ccc(F)cc2)cc1 [Compound 6-18, N-(4-(4-butoxyphenyl)-5-(4-fluorophenyl)thiazol-2-yl)-5-nitrothiophene-2-carboxamide] | 2010 | 8260 |  | 6490 |  | 1380 | 2170 | 26
CC(C)(C)c1ccc(-c2nc(NC(=O)c3ccc([N+](=O)[O-])s3)sc2-c2ccccc2)cc1 [Compound 6-21, N-(4-(4-(tert-butyl)phenyl)-5-phenylthiazol-2-yl)-5-nitrothiophene-2-carboxamide] | 810 | 1470 |  | 490 | 1470 | 670 | 1350 | 29
CC(C)(C)c1ccc(-c2nc(NC(=O)c3ccc([N+](=O)[O-])s3)sc2-c2ccc(F)cc2)cc1 [Compound 6-24, N-(4-(4-(tert-butyl)phenyl)-5-(4-fluorophenyl)thiazol-2-yl)-5-nitrothiophene-2-carboxamide] | 1560 | 4220 |  | 1370 | 3570 | 990 | 1930 | 30
CCOc1ccc(-c2nc(NC(=O)c3ccc([N+](=O)[O-])s3)sc2Cc2ccccc2)cc1 [Compound 6-34, N-(5-benzyl-4-(4-ethoxyphenyl)thiazol-2-yl)-5-nitrothiophene-2-carboxamide] | 1400 |  |  | 2510 |  | 1010 | 7530 | 44
CC(C)(C)c1ccc(-c2nc(NC(=O)c3ccc([N+](=O)[O-])s3)sc2-c2cc(F)cc(F)c2)cc1 [Compound 6-38, N-(4-(4-(tert-butyl)phenyl)-5-(3,5-difluorophenyl)thiazol-2-yl)-5-nitrothiophene-2-carboxamide] | 700 | 1650 |  | 740 | 4060 | 630 | 1610 | 30
CCC(C)(C)c1ccc(-c2nc(NC(=O)c3ccc([N+](=O)[O-])s3)sc2-c2ccc(F)cc2)cc1 [Compound 6-40, N-(5-(4-fluorophenyl)-4-(4-(tert-pentyl)phenyl)thiazol-2-yl)-5-nitrothiophene-2-carboxamide] | 1880 | 3610 |  | 920 | 1350 | 540 | 3030 | 25
CC(C)(C)c1ccc(-c2nc(NC(=O)c3ccc([N+](=O)[O-])s3)sc2-c2ccc(F)c(F)c2)cc1 [Compound 6-46, N-(4-(4-(tert-butyl)phenyl)-5-(3,4-difluorophenyl)thiazol-2-yl)-5-nitrothiophene-2-carboxamide] | 630 | 900 |  | 680 | 1330 | 590 | 1100 | 31
CCC(C)(C)c1ccc(-c2nc(NC(=O)c3ccc([N+](=O)[O-])s3)sc2-c2ccc(F)cc2F)cc1 [Compound 6-47, N-(5-(2,4-difluorophenyl)-4-(4-(tert-pentyl)phenyl)thiazol-2-yl)-5-nitrothiophene-2-carboxamide] | 580 | 930 |  | 640 | 1390 | 590 | 660 | 33
CC(C)(C)c1ccc(-c2nc(NC(=O)c3ccc([N+](=O)[O-])s3)sc2-c2ccc(Br)cc2)cc1 [Compound 6-53, N-(5-(4-bromophenyl)-4-(4-(tert-butyl)phenyl)thiazol-2-yl)-5-nitrothiophene-2-carboxamide] | 710 | 1370 |  | 620 | 990 | 540 | 620 | 24
COc1ccc(-c2sc(NC(=O)c3ccc([N+](=O)[O-])s3)nc2-c2ccc(C(C)(C)C)cc2)cc1 [Compound 6-54, N-(4-(4-(tert-butyl)phenyl)-5-(4-methoxyphenyl)thiazol-2-yl)-5-nitrothiophene-2-carboxamide] | 440 | 1590 |  | 1380 | 2350 | 610 | 710 | 25
CC(C)(C)c1ccc(-c2nc(NC(=O)c3ccc([N+](=O)[O-])s3)sc2-c2ccc(Cl)cc2)cc1 [Compound 6-59, N-(4-(4-(tert-butyl)phenyl)-5-(4-chlorophenyl)thiazol-2-yl)-5-nitrothiophene-2-carboxamide] | 700 | 1280 |  | 750 | 1620 | 600 | 640 | 27
